The source of these data is paper PMC9598311, “Identification of a Small Molecule That Inhibits the Interaction of LPS Transporters LptA and LptC” (Antibiotics, 2022).

The Kd is a measure of binding affinity in units of concentration. Low readings indicate a tighter complex, high ones a looser complex. Usually koff stands for a measure of how fast the partners let go of each other. High values mean fast dissociation, low ones slow dissociation. By kon is commonly meant the second-order rate constant of association.

Assay [1] concerns T1, LptA/LptC.
T1 construct: complex formed on chip: LptC immobilized, LptA in solution; both N-terminal 6-His tagged, expressed in E. coli BL21(DE3)
As to the kind of experiment: SPR, LptA preincubated with compound passed over immobilized LptC. The assay is classed as binding, Escherichia coli. Conditions: inhibition of LptA/LptC protein-protein interaction; LptA 15 ug/mL, compound 0-4 ug/mL, PBST. For orientation: In SPR one partner is held on a chip, and binding of the other changes the refractive index at the surface.

Assay [2] addresses T2, LptA (Escherichia coli, UniProt P0ADV1).
T2 construct: synthetic gene in pET-28a, N-terminal 6-His tag, expressed in E. coli BL21(DE3), His-Trap purified
T2 sequence (P0ADV1 28-185): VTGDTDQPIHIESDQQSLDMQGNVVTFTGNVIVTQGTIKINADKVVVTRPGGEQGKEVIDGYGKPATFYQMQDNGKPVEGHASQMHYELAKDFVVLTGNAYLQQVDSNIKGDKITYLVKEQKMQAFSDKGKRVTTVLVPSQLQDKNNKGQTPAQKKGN
Kind of assay: SPR, LptA immobilized on carboxymethyl dextran chip. The assay is classed as binding. From the text: SPR, LptA immobilized on carboxymethyl dextran chip on LptA

Assay [3] deals with T3, LptC (Escherichia coli, UniProt P0ADV9).
T3 construct: synthetic gene in pET-28a, N-terminal 6-His tag, expressed in E. coli BL21(DE3), His-Trap purified
T3 sequence (P0ADV9 1-191): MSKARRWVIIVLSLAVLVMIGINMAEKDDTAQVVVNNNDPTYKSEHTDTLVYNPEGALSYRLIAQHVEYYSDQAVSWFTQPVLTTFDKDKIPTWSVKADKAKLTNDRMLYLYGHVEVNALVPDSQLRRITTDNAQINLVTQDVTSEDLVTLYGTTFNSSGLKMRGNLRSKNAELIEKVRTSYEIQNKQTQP
Kind of assay: SPR, LptC immobilized on carboxymethyl dextran chip. The assay is classed as binding. From the text: SPR, LptC immobilized on carboxymethyl dextran chip on LptC

For assay [4], the target named is T4, LptC protein with a 6-His tag at the N-terminal (Escherichia coli) (UniProt P0ADV9).
T4 sequence (P0ADV9 whole entry, looked up): T3 sequence (P0ADV9 1-191)
As to the kind of experiment: SPR; Reichert SPR system; LptC immobilised on a mixed self-assembled monolayer (SAM) sensor chip; LptA 0.164 µM to 2.624 µM in PBST (0.01 M Na Phosphate, 0.15 M NaCl, 0.05% Tween 20) passed over; regeneration 1 M NaCl 90 s; TraceDrawer 1.7.1.

Regarding `CN(C)c1ccc(/C=C/c2cc(C(C)(C)C)[o+]c(C(C)(C)C)c2)cc1` [IMB-0042], the “SPR, LptA preincubated with compound passed over immobilized LptC” value in assay [1] was “Compound IMB-0042 blocked LptA/LptC interaction”. Also, the values for the dissociation constant Kd in assay [2] and in assay [3] were 4.67 µM and 32.6 µM, respectively.

B1: LptA protein with a 6-His tag at the N-terminal (natural protein)
chain: T2 sequence (P0ADV1 28-185)
Regarding B1, in assay [4], the Kd turned out to be 2.28 µM, the koff worked out at 0.385 s⁻¹ and the on-rate (kon) was 169000 M⁻¹ s⁻¹.
